Assay results from BigSolDB 2.1.

Cc1nnc(C(C)C)n1[C@@H]1C[C@H]2CC[C@@H](C1)N2CC[C@H](NC(=O)C1CCC(F)(F)CC1)c1ccccc1
solubility (mole fraction)
Settings	278.15 K	283.15 K	288.15 K	293.15 K	298.15 K	303.15 K	308.15 K	313.15 K	318.15 K	323.15 K
in DMF	3.43e-05	5.31e-05	8.04e-05	0.000117	0.000181	0.000256	0.000364	0.000535	0.000744	0.00105
in DMSO	–	–	–	5.92e-05	8.77e-05	0.000133	0.000189	0.000273	0.00038	0.000539
in ethanol	0.000264	0.00038	0.0005	0.000715	0.00099	0.00142	0.00196	0.00273	0.0036	0.00458
in n-propanol	0.00022	0.000327	0.000454	0.000645	0.000911	0.00126	0.00167	0.00222	0.00296	0.00395
in water	5.73e-06	8.2e-06	1.15e-05	1.7e-05	2.47e-05	3.5e-05	5e-05	7.13e-05	9.89e-05	0.000137
